Data on 2 compounds can be found in ChEMBL document CHEMBL3745691, “Identification of a small molecule HIV-1 inhibitor that targets the capsid hexamer” (Bioorg Med Chem Lett, 2016).

The test system of data set [1] is Human immunodeficiency virus 1. Put plainly: Binding affinity to HIV1 capsid protein p24 assessed as turbidity at 100 uM by spectrophotometer analysis.
Data set [2] concerns Human immunodeficiency virus 1. Put plainly: Inhibition of HIV1 capsid protein p24 interaction with CPSF6 (308-327) at 300 uM.
A short description of data set [3]: Binding affinity to HIV1 capsid protein p24 by SPR assay. Further details: species or system Human immunodeficiency virus 1.
Data set [4] is described as follows: Cytotoxicity against human U87 cells expressing CD4.CCR5. The data set is classed as cell-based, U-87MG ATCC.
In data set [5] the test system is Human immunodeficiency virus 1. Put plainly: Antiviral activity against HIV1 NL4-3 pseudotyped with JR-FL envelope infected in human U87.CD4.CCR5 cells by single-round infection assay. Format: functional, organism-based. Conditions: Human immunodeficiency virus 1, NL4-3, U87/CD4/CCR5.
Data set [6] can be described thus: Therapeutic index, ratio of CC50 for human U87 cells expressing CD4.CCR5 to IC50 for HIV1 NL4-3 pseudotyped with JR-FL envelope. Format: cell-based, U-87MG ATCC. The note with it: read-out: Ratio CC50/IC50.
For data set [7], the system named is Human immunodeficiency virus 1. Put plainly: Inhibition of HIV1 capsid protein p24 interaction with CPSF6 (308-327) at 2.5 uM.

Each structure is given as a SMILES string. Calls of active or inactive are those of the source. No cut-off for these calls is given here.

Consider `Cc1[nH]c2ccccc2c1CC(=O)N[C@@H](Cc1ccccc1)C(=O)N(C)c1ccccc1`, for which the outcome in data set [1] was Active. The inhibition entry in data set [2] was “Active”. Binding in data set [3] was characterised by a dissociation constant (Kd) of 2.53 µM.
`O=C(Cc1c[nH]c2ccccc12)NCC1(c2ccccc2)CC1` had a half-maximal cytotoxic concentration (CC50) in data set [4] of 526 µM. Also, in data set [1], the result was Active. The same compound showed a concentration for half-maximal inhibition (IC50) in data set [5] of 18.1 µM. Further, in data set [6], the selectivity ratio is > 29. In addition, the inhibition entry in data set [7] was “Active”. Moreover, the equilibrium dissociation constant (Kd) in data set [3] worked out at 38.2 µM.
